For series [1] the following is noted: 0.1 M KNO3, 25 °C, cited from earlier work; for logKAlL: stability constant of Al(III) complex.
The conditions of series [2]: cited from earlier work.
Series [3] can be described thus: Stability and protonation constants of the Al(III) complexes (pH-potentiometry, 27Al NMR). In kind it is physicochemical. The settings on record: 0.15 M NaNO3, 25 °C; for logβAlLH−1: cumulative stability constant of AlLH−1; for logKAlLH−1: protonation constant of AlLH−1 species, pH-potentiometry; for logKAlL: stability constant of Al(III) complex, 27Al NMR spectroscopy. As to the method: The stability and protonation constants of the Al(III) complexes of AMPTA, AMPDA-HB, and CD3A-Bn, defined by Equations (2)–(4), were investigated by pH-potentiometry and by multinuclear NMR spectroscopy at 25 °C in 0.15 M NaNO3 solution. (2) KAlL=AlL/Al^3+L (3) KAlLH−1=AlL/AlLH−1H^+ (4) Al^3++L+OH^− ⇌AlLH−1 βAlLH−1=AlLH−1/Al^3+LOH^−
In order to avoid the hydrolysis of the Al(III) ion, the pH-potentiometric titration of the pre-prepared complexes of AMPTA, AMPDA-HB, and CD3A-Bn ligands was performed at pH > 4.0.
To determine the stability constant of the Al(III) complexes, the ^1H and ^27Al NMR spectra of the Al^3+-AMPTA, Al^3+-AMPDA-HB, and Al^3+-CD3A-Bn systems were recorded in the pH range 8.0–12. ^1H and ^27Al NMR spectra of the three systems are shown in Figures S1–S6.
The analysis of the ^27Al NMR data was used for the calculation of the stability constants of the [Al(AMPTA)], [Al(AMPDA-HB)], and [Al(CD3A-Bn)] complexes. Integrals of the ^27Al NMR signal ([Al(OH)4]^− at 81 ppm, ν½ = 11 Hz; see Figures S2, S4 and S6) were used for the calculation of the logKAlL value of the three Al complexes by taking into account the protonation constant of the AlLH−1 species (Equation (3), Table 1) and the known hydrolysis constants of the free Al^3+ ion (logK[Al(OH)]^2+ = −4.60, logK[Al(OH)2]^+ = −9.09, logK[Al(OH)3] = −14.94 and logK[Al(OH)4]^− = −23.08, logK[Al2(OH)2]^4+ = −8.0, logK[Al3(OH)4]^5+ = −13.47, logK[Al13(OH)32]^7+ = −104.81). […] The equilibrium data obtained by pH-potentiometry and multinuclear NMR spectroscopy were used to calculate the species distribution diagram for the Al(III)-AMPTA, Al(III)AMPDA-HB, and Al(III)-CD3A-Bn systems (Figure 1, Figure 2 and Figure 3). The amount of [Al(OH)4]^− species determined by ^27Al NMR studies (Figures S2, S4 and S6) is also shown in Figure 2, Figure 3 and Figure 4.
(§1) The protonation constants of the AMPTA, AMPDA-HB, and CD3A-Bn and those of the Al(III) complexes were determined by pH-potentiometric titration. The metal-to-ligand concentration ratio was 1:1 (the concentration of the ligand was generally 0.002 M). For the pH measurements and titrations, a Metrohm 888 Titrando automatic titration workstation with a Metrohm-6.0234.110 combined electrode was used. Equilibrium measurements were carried out at a constant ionic strength (0.15 M NaNO3) in 6 mL samples at 25 °C under magnetic stirring and N2 bubbling. The titrations were made in the pH range 1.7–12.0. KH-phthalate (pH = 4.005) and borax (pH = 9.177) buffers were used to calibrate the pH meter. For the calculation of [H^+] from the measured pH values, the method proposed by Irving et al. was used. A 0.01 M HNO3 solution was titrated with the standardized NaOH solution in the presence of 0.15 M NaNO3 ionic strength.

Series [4] can be described thus: Protonation constants of the ligands (pH-potentiometry, spectrophotometry). It is filed as physicochemical. To be noted: 0.15 M NaNO3, 25 °C; for logK1^H / logK2^H / logK3^H / logK4^H: pH-potentiometry; for ΣlogK1–4^H: total basicity. As to the method:
Since the thermodynamic properties of any metal complex proposed for in vivo applications must be characterized by high thermodynamic stability, the equilibrium properties of AMPTA, AMPDA-HB, and CD3A-Bn ligands and their Al(III) complexes were investigated in detail. First, the protonation constants of the ligands, defined by Equation (1), were determined by pH-potentiometry and the logKi^H values are listed in Table 1. (1) KiH=HiL/Hi−1LH^+
as §1, with “strength. The differences (A) between the measured (pHread) and calculated pH (−log[H^+]) values were used to obtain the equilibrium H^+ concentration from the pH values measured in the titration experiments (A = −0.035). The waiting time between two pH measurements was 60 s. For the equilibrium calculations, the stoichiometric water ionic product (pKw) was also needed to calculate [OH^−] values under basic conditions. The VNaOH-pHread data pairs of the HNO3NaOH titration obtained in the pH range 10.5–12.0 were used to calculate the pKw value (pKw = 13.78). The protonation and stability constants were calculated with the PSEQUAD program.” for “strength.”

Details of series [5]: method as in doi:10.1021/ac60305a041, doi:10.1021/ja00792a018. To be noted: 0.5 M Me4NCl, 25 °C; cited from earlier work.
Details of series [6]: method as in PMID 31830368. To be noted: cited from earlier work.
Details of series [7]: method as in PMID 31830368. To be noted: up to 4 h in PBS, serum, and EDTA solutions; cited from earlier work.
Series [8] is described as follows: Protonation constants of the ligands (pH-potentiometry, spectrophotometry). It is filed as physicochemical. To be noted: 0.15 M NaNO3, 25 °C.
Details of series [9]: method as in doi:10.1007/s11144-015-0892-6. The settings on record: 1.0 M NaCl, cited from earlier work.

Like-named read-outs stand apart in the source and are kept apart here. Marks after values point to notes of the source that are not given here.

On to `O=C(O)CN(CC(=O)O)[C@@H]1CCCC[C@H]1N(CC(=O)O)CC(=O)O` (relative stereo) [CDTA, trans-1,2-diaminocyclohexane-N,N,N′,N′-tetraacetic acid], for which, in series [1], the “logKAlLH−1” value was 7.70 ^e, the “logβAlLH−1” value was 11.2 ^e and the logKAlL is given as 18.9 ^e. In series [2] (0.15 M NaNO3, 25 °C), the “logK1^H” value is given as 9.54, the “logK2^H” value is on record as 6.08, the “logK3^H” value is recorded as 3.65 and the “logK4^H” value is given as 2.69. In series [2] (0.15 M NaNO3, 25 °C), the “logK5^H” value is recorded as 1.14 and the “ΣlogK1–4^H” value is given as 21.96.
Regarding `O=C(O)CN(CCN(CC(=O)O)CC(=O)O)CC(=O)O` [EDTA], in series [1], the “logKAlLH−1” value is 6.0 ^e, the “logβAlLH−1” value was 10.5 ^e and the logKAlL is 16.5 ^e. In addition, in [2] (0.15 M NaNO3, 25 °C), the “logK1^H” value is 9.40, the “logK2^H” value is listed as 6.10, the “logK3^H” value is on record as 2.72 and the “logK4^H” value is given as 2.08. Besides, in series [2] (0.15 M NaNO3, 25 °C), the “logK5^H” value is on record as 1.23 and the “ΣlogK1–4^H” value was 20.30.
In the case of `Oc1ccccc1` [phenol], in series [2] (0.1 M NaClO4), the “logK^H” value is reported as 10.0.
In the case of `O=C(O)CN(CC(=O)O)CC1CCCCN1CC(=O)O` (stereo not shown) [AMPTA], in series [3], the “logβAlLH−1” value was 9.8 (1), the “logKAlLH−1” value was 5.06 (6) and the logKAlL is on record as 14.9 (1) ^d. In series [4], the “logK1^H” value is reported as 11.49 (1), the “logK2^H” value is 5.56 (4), the “logK3^H” value is reported as 2.75 (5) and the “logK4^H” value is given as 1.73 (5). The “ΣlogK1–4^H” value in series [4] is listed as 21.53. Besides, in [2] (0.15 M NaCl, 25 °C), the “logK1^H” value is listed as 11.67, the “logK2^H” value was 5.47, the “logK3^H” value is 2.74 and the “logK4^H” value is 1.62. In addition, the “ΣlogK1–4^H” value in series [2] (0.15 M NaCl, 25 °C) is reported as 21.50.
On to `O=C([O-])CN(CCN(CC(=O)O)CC(=O)O)CC(=O)O.[Na+]` [[Na(EDTA)]^3−], for which, in [5], the logKNaL is 1.43.
Take `O=C(O)CN(Cc1ccccc1O)CC1CCCCN1CC(=O)O` (stereo not shown) [AMPDA-HB]: in [6], the “excretion of the [Al18F]-labelled complex in vivo” value was “rapid hepatobiliary and renal excretion”. Further, in series [6] (in vivo), the “accumulation in the bones of the [Al18F]-labelled complex” value is listed as “low accumulation in the bones”. Further, in series [3], the “logβAlLH−1” value is on record as 11.7 (1), the “logKAlLH−1” value is on record as 6.94 (6) and the logKAlL is recorded as 18.6 (1) ^d. Besides, in [4], the “logK3^H” value is given as 4.94 (5), the “logK4^H” value is reported as 2.01 (5) and the “ΣlogK1–4^H” value came to 28.87. Besides, the “stability in vitro of the [Al18F]-labelled complex” value in series [7] was “high stability”. In series [8], the “logK1^H” value is reported as 12.0 (1) ^b and the “logK2^H” value was 9.92 (5) ^b. In series [2] (0.15 M NaCl, 25 °C), the “logK1^H” value is 12.4, the “logK2^H” value is given as 10.14, the “logK3^H” value is recorded as 4.76 and the “logK4^H” value is reported as 1.91. Besides, the “ΣlogK1–4^H” value in series [2] (0.15 M NaCl, 25 °C) is listed as 29.21.
In the case of `O=C([O-])CN1CCN(CC(=O)[O-])CCN(CC(=O)[O-])CC1.[Al+3]` [[Al(NOTA)]], in series [9] (25 °C), the “KAl(L)H−2 (KAl(NOTA)H−1 for [Al(NOTA)])” value was 1.6 × 10^12 c M^−1, the k0 was 2e-06 s⁻¹, the “k1 (kOH for [Al(NOTA)])” value is reported as 6.8 × 10^−6 b M^−1 s^−1 and the “logKAl(L)H−2” value is 12.2. Further, in [9] (pH 7.4, 25 °C), the “kd (pH = 7.4)” value is 2 × 10^−6 s^−1 and the “t1/2 (pH = 7.4), dissociation half-life (ln2/kd)” value is given as 94 h.
With `O=C(O)CN(CC(=O)O)[C@@H]1CCCC[C@H]1N(CC(=O)O)Cc1ccccc1` [CD3A-Bn, trans-1,2-diaminocyclohexane-N-benzyl-N,N′,N′-triacetic acid], in [3], the “logβAlLH−1” value was 9.3 (1), the “logKAlLH−1” value is 5.20 (4) and the logKAlL is 14.5 (1) ^d. In addition, in series [4], the “logK1^H” value is given as 10.72 (2), the “logK2^H” value was 5.22 (3), the “logK3^H” value was 3.34 (3) and the “logK4^H” value is listed as 0.59 (9). In series [4], the “ΣlogK1–4^H” value came out at 19.87.
With `O=C([O-])CN(CC(=O)O)C1CCCCC1N(CC(=O)O)CC(=O)O.[Na+]` (stereo not shown) [[Na(CDTA)]^3−], in series [5], the logKNaL is on record as 4.66.
